Patent US11220483B2, “Tetrahydro-benzo[d]azepine derivatives as GPR120 modulators” (CALDAN THERAPEUTICS LIMITED, priority 2018, dated 2022)

Target: T1, human GPR120 (Homo sapiens, UniProt Q5NUL3)
T1 construct: expressed in transfected cells; host or cells: HEK293T, transient transfection with PEI
T1 sequence (Q5NUL3 1-361): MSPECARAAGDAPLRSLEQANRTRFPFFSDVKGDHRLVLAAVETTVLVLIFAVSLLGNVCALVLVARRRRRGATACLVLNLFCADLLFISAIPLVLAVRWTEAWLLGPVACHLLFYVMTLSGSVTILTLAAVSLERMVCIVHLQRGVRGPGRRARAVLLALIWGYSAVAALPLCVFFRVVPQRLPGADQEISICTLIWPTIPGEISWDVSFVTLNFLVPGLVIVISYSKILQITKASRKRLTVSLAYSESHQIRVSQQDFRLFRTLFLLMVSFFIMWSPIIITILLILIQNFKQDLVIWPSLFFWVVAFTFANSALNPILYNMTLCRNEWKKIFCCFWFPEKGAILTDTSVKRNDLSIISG
Test: Human GPR120-β Arrestin 2 BRET agonist assay
Assay type: cell-based
Details: HEK293T cells transiently co-expressing hGPR120-eYFP and β-arrestin 2-RLuc; BRET normalised to DMSO (0%) and TUG-891 (100%); read-out: hGPR120 pEC50 (converted)
Description: pEC50 data was obtained by the following procedure:
Human GPR120-β Arrestin 2 Bio-Luminescence Resonance Energy Transfer (BRET) Agonist Assay Procedure
HEK293T cells were cultured in growth media composed of DMEM L-glutamine media supplemented with 10% (v:v) fetal bovine serum (FBS) and 1% (v:v) 10,000 units penicillin/10 mgml^−1 streptomycin at 37° C., 5% CO2. HEK293T cells transiently co-expressing human GPR120 […] and b-arrestin 2 were generated by transfection with plasmids encoding a construct of hGPR120 […] fused at its C terminal with enhanced yellow fluorescent protein (eYFP), and another encoding β-arrestin 2 fused to Renilla luciferase (RLuc), using Polyethylenimine (PEI) as the transfection reagent.
Transfected cells were cryopreserved in batches for consistency between replicate assays. Twenty-four hours post transfection, cells were harvested with non-enzymatic cell dissociation buffer and re-suspended in DMEM medium supplemented with 10% DMSO and 10% FBS before being transferred first to −80° C. overnight and then to liquid nitrogen for long-term storage. On the day prior to the assay, cells were thawed at 37° C. and re-suspended in growth media. A 96 well white opaque bottom microtitre plate was then seeded with 40,000 cells in a volume of 100 μl growth media per well and seeded plates were then incubated overnight at 37° C., 5% CO2. On the day of the BRET experiment, cells were washed twice with BRET assay buffer (Hanks balanced salt solution (HBSS) supplemented with 10 mM HEPES (pH 7.4)), then 80 μl per well of BRET assay buffer was added before the plate was incubated for 30 minutes at 37° C., 5% CO2. Then, Renilla luciferase substrate coelenterazine h (5 μM) was added to the cells and incubated at 37° C. for 10 minutes before the addition of GPR120 agonist (TUG-891) or test compound for a further 5 minutes at 37° C.
Bio-luminescence at λ 535 nm and λ 475 nm was then measured with a Pherastar FsX instrument, and the λ 535/λ 475 ratio of bio-luminescence was then used to calculate a BRET value. hGPR120 agonist potency values (pEC50) were calculated by normalising the BRET values to the DMSO vehicle (0% control) and TUG-891 (100% control) and then fitting the normalised data to a 3-parameter concentration-response curve.

Row | SMILES | EC50 [nM]
1 | N#Cc1ccc(N2CCc3cc(CCC(=O)O)ccc3C2)cc1 [Compound 17, 3-(2-(4-cyanophenyl)-1,2,3,4-tetrahydroisoquinolin-6-yl)propanoic acid] | 7940
2 | O=C(O)CCc1ccc2c(c1)CCN(c1cccc(OC3CCC3)n1)C2 [Compound 21, 3-(2-(6-cyclobutoxypyridin-2-yl)-1,2,3,4-tetrahydroisoquinolin-6-yl)propanoic acid] | 39.8
3 | O=C(O)CCc1ccc2c(c1)CCN(c1cc(OC3CCC3)cc(F)c1F)C2 [Compound 3, 3-(2-(5-cyclobutoxy-2,3-difluorophenyl)-1,2,3,4-tetrahydroisoquinolin-6-yl)propanoic acid] | 10
4 | CC1(C)Cc2cc(Cl)cc(N3CCc4cc(CCC(=O)O)ccc4C3)c2O1 [Compound 15, 3-(2-(5-chloro-2,2-dimethyl-2,3-dihydrobenzofuran-7-yl)-1,2,3,4-tetrahydroisoquinolin-6-yl)propanoic acid] | 631
5 | O=C(O)CCc1cc2c(cc1F)CN(c1cc(F)cc(OC3CCC3)c1)CC2 [Compound 42, 3-(2-(3-Cyclobutoxy-5-fluorophenyl)-7-fluoro-1,2,3,4-tetrahydroisoquinolin-6-yl)propanoic Acid] | 316
6 | C[C@H](Cc1ccc2c(c1)CCN(c1cc(OC(F)(F)F)ccc1F)CC2)C(=O)O [Compound 51, (R)-3-(3-(2-fluoro-5-(trifluoromethoxy)phenyl)-2,3,4,5-tetrahydro-1H-benzo[d]azepin-7-yl)-2-methylpropanoic Acid] | 501
7 | O=C(O)CCc1ccc2c(c1)CCN(c1cc(OC3CC3)ccc1F)CC2 [Compound 47, 3-(3-(5-cyclopropoxy-2-fluorophenyl)-2,3,4,5-tetrahydro-1H-benzo[d]azepin-7-yl)propanoic acid] | 158
